In patent US20220402867A1, “SULFO-SUBSTITUTED BIARYL COMPOUND OR SALT THEREOF, PREPARATION METHOD THEREFOR, AND USE THEREOF” (Shanghai Litedd Co., Ltd., priority 2019, published 2022):

Experiments:
[1] = target: T1, RORγt (RORγ-LBD chimeric receptor) (Homo sapiens, UniProt P51449); test: Luciferase reporter gene assay of RORγt agonistic activity in HEK293T cells; format: cell-based; set-up: Emax: dose or concentration left out as unconfirmed; conditions: for EC50: HEK293T, GAL4 luciferase reporter, read-out: EC50; for Emax: HEK-293T
T1 construct: host or cells: HEK293T
T1 sequence (P51449 269-508 limits assumed): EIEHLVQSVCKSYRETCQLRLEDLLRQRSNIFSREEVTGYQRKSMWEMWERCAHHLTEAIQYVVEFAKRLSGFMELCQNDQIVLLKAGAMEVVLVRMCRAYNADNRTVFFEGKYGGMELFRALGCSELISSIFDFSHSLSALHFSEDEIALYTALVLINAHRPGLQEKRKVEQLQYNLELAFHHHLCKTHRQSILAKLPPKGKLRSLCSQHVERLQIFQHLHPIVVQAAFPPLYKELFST
Procedure, shortened: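 HEK293T cells co-transfected with GAL4-RORγ-LBD (pBIND) and GAL4-driven luciferase reporter (pGL4.35), then treated with compounds (10-point 3-fold series; 10 mM top DMSO stock). Luminescence (Steady-Glo) normalised to positive and vehicle controls as % activity; EC50 by log-concentration fit.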

human PBMC (Th17 cells) = test: Th17 differentiation and IL-17 secretion in human PBMC; format: cell-based; conditions: IL-17 ELISA after 48 hours; for Emax: maximum activation rate
Protocol: Test procedure: PBMC cells were first thawed and plated, and then stimulated with stimulating factors (anti-hCD28: 5 μg/mL; rhTGF-β1: 5 ng/mL; rhIL-6: 20 ng/mL; rhIL-23: 10 ng/Ml) to differentiate to Th17, while adding different concentrations of compounds. All test compounds were serially diluted at 3-fold dilution with DMSO, with 8 serial dilutions starting from the maximum concentration 3 μM. The supermatants were collected after 48 hours for IL-17 ELISA detection, and compared with the solvent group, to determine the activation rate of the compounds on Th17 cells to secrete IL-17. EC50 values were fitted with Graphad8.0, and the TOP values fitted by the software was Emax %.

[2] = Metabolic stability in human liver microsomes; format: in vitro ADME; conditions: for microsomal CLint: 0.5 mg protein/mL
Procedure, shortened: (§1)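 Compound incubated at 37 °C with 0.5 mg protein/mL liver microsomes plus cofactors in PBS, sampled at 0–60 min, quenched with cold acetonitrile and quantified by HPLC-MS/MS (n=3). Half-life and Clint (μL/min/mg) come from the slope of ln(% remaining) versus time.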

[3] = Metabolic stability in mouse liver microsomes; format: in vitro ADME, CD-1 mice; conditions: for half-life: CD-1; for microsomal CLint: CD-1, 0.5 mg protein/mL
Procedure, shortened: as §1

[4] = system: mouse spleen lymphocytes (Th17 cells); test: Th17 differentiation and IL-17 secretion in mouse lymphocytes; format: cell-based; conditions: Lymphocyte, IL-17 ELISA after 48 hours; for Emax: maximum activation rate
Protocol: Test procedure: the mouse spleen lymphocytes were first isolated, and the lymphocytes were subject to the conditions of stimulating factors (anti-mCD28: 5 μg/mL; rmTGF-β1: 1 ng/mL; rmIL-6: 50 ng/mL; rmIL-23: 5 ng/mL) and differentiated to Th17, while adding different concentrations of compounds. All test compounds were serially diluted at 3-fold dilution with DMSO, with 8 serial dilutions starting from the maximum concentration 3 μM. The supernatants were collected after 48 hours for IL-17 ELISA detection, and compared with the solvent group, to determine the activation rate of the compounds on Th17 cells to secrete IL-17. EC50 values were fitted with Graphad 8.0, and the TOP values fitted by the software was Emax %.

Compound	EC50 [1]	Emax [1]	half-life [2]	microsomal CLint [2]	% Remaining (T = 60 min) [2]	% Remaining (T = 60 min) [3]	half-life [3]	microsomal CLint [3]	EC50 [4]	EC50 (human PBMC (Th17 cells))	Emax (human PBMC (Th17 cells))	Emax [4]
COCC(C(=O)Nc1ccc(-c2ccc(S(=O)(=O)C3CC3)cc2)c(C(F)(F)F)c1)c1ccc(S(C)(=O)=O)cc1 (single isomer, unassigned) [Example 43, (S)—N-(4′-(cyclopropylsulfonyl)-2-(trifluoromethyl)-[1,1′-biphenyl]-4-yl)-3-methoxy-2-(4-(methylsulfonyl)phenyl)propionamide or (R)—N-(4′-(cyclopropylsulfonyl)-2-(trifluoromethyl)-[1,1′-biphenyl]-4-yl)-3-methoxy-2-(4-(methylsulfonyl)phenyl)propanamide]	57 nM	64.1%	1.68 h	13.8 µL/min/mg	69%	64.4%	1.56 h	14.8 µL/min/mg		135 nM	265%	
CCS(=O)(=O)c1ccc(CC(=O)Nc2cc(Cl)c(-c3ccc(S(C)(=O)=O)cc3)c(Cl)c2)cc1 [Example 2, N-(2,6-dichloro-4′-(methylsulfonyl)-[1,1′-biphenyl]-4-yl)-2-(4-(ethylsulfonyl)phenyl)acetamide]	19 nM	43%	> 2.42 h	< 9.6 µL/min/mg	75.7%	89.30%	> 2.42 h	< 9.6 µL/min/mg	114 nM	61.6 nM	138%	203%
CCS(=O)(=O)c1ccc(-c2c(Cl)cc(NC(=O)Cc3ccc(S(C)(=O)=O)cc3)cc2Cl)cc1 [Example 4, N-(2,6-Dichloro-4′-(ethylsulfonyl)-[1,1′-biphenyl]-4-yl)-2-(4-(methylsulfonyl)phenyl)acetamide]	17 nM	64%	> 2.42 h	< 9.6 µL/min/mg	83.4%	22.20%	0.47 h		112 nM	30.4 nM	152%	156%
CCS(=O)(=O)c1ccc(CC(=O)Nc2cc(Cl)c(-c3ccc(S(C)(=O)=O)cc3)c(Cl)c2)nc1 [Example 8, N-(2,6-Dichloro-4′-(methylsulfonyl)-[1,1′-biphenyl]-4-yl)-2-(5-(ethylsulfonyl)pyridin-2-yl)acetamide]	44 nM	37.9%	> 2.42 h	< 9.6 µL/min/mg	95.6%	107.80%	> 2.42 h	< 9.6 µL/min/mg	370 nM	347 nM	129%	85%
CCS(=O)(=O)c1ccc(-c2c(Cl)cc(NC(=O)Cc3ccc(S(C)(=O)=O)cn3)cc2Cl)cc1 [Example 9, N-(2,6-Dichloro-4′-(ethylsulfonyl)-[1,1′-biphenyl]-4-yl)-2-(5-(methylsulfonyl)pyridin-2-yl)acetamide]	53 nM	51.5%	> 2.42 h	< 9.6 µL/min/mg	102.5%	64.20%	1.64 h		943 nM	360 nM	167%	65.4%
CS(=O)(=O)c1ccc(CC(=O)Nc2cc(Cl)c(-c3ccc(S(=O)(=O)C4CC4)cc3)c(Cl)c2)cc1 [Example 11, N-(2,6-Dichloro-4′-(cyclopropylsulfonyl)-[1,1′-biphenyl]-4-yl)-2-(4-(methylsulfonyl)phenyl)acetamide]	15 nM	45%	> 2.42 h	< 9.6 µL/min/mg	110.5%	97.10%	> 2.42 h	< 9.6 µL/min/mg	318 nM	52.8 nM	149%	123%

The next lines start with results.

EC50 [1]	Emax [1]	half-life [2]	microsomal CLint [2]	% Remaining (T = 60 min) [2]	% Remaining (T = 60 min) [3]	half-life [3]	microsomal CLint [3]	EC50 [4]	Compound	EC50 (human PBMC (Th17 cells))	Emax (human PBMC (Th17 cells))	Emax [4]
37 nM	69.6%	> 2.42 h	< 9.6 µL/min/mg	76.7%	35.50%	0.707 h		11.4 nM	CCS(=O)(=O)c1ccc(-c2c(Cl)cc(NC(=O)Cc3ccc(S(=O)(=O)CC)cn3)cc2Cl)cc1 [Example 5, N-(2,6-Dichloro-4′-(ethylsulfonyl)-[1,1′-biphenyl]-4-yl)-2-(5-(ethylsulfonyl)pyridin-2-yl)acetamide]	33.2 nM	123%	147%
69 nM	71.9%	2.07 h		71.4%	28%	0.543 h		5.7 nM	CCS(=O)(=O)c1ccc(-c2c(Cl)cc(NC(=O)C(COC)c3ccc(S(=O)(=O)CC)cc3)cc2Cl)cc1 (stereo not shown) [Example 13, N-(2,6-Dichloro-4′-(ethylsulfonyl)-[1,1′-biphenyl]-4-yl)-2-(4-(ethylsulfonyl)phenyl)-3-methoxypropionamide]	6.2 nM	139%	134%
181 nM	85.6%	> 2.42 h	< 9.6 µL/min/mg	100.7%	68.90%	2.24 h	10.7 µL/min/mg		CCS(=O)(=O)c1ccc(C(COC)C(=O)Nc2cc(Cl)c(-c3ccc(S(=O)(=O)C4CC4)cc3)c(Cl)c2)cc1 (stereo not shown) [Example 16, N-(2,6-Dichloro-4′-(cyclopropylsulfonyl)-[1,1′-biphenyl]-4-yl)-2-(4-(ethylsulfonyl)phenyl)-3-methoxypropionamide]	27.3 nM	202%	
81 nM	63.5%	1.34 h	17.3 µL/min/mg	53.9%	75.50%	2.21 h	10.5 µL/min/mg		COCC(C(=O)Nc1cc(Cl)c(-c2ccc(S(=O)(=O)C3CC3)cc2)c(Cl)c1)c1ccc(S(C)(=O)=O)cc1 (stereo not shown) [Example 20, N-(2,6-Dichloro-4′-(cyclopropylsulfonyl)-[1,1′-biphenyl]-4-yl)-3-methoxy-2-(4-(methylsulfonyl)phenyl)propionamide]	18.9 nM	228%	
